Residue numbers refer to the chain shown, from its start. pIC50: −log10 of the molar value.
How the values were obtained:
[1] = molecular target: T1, HEK-293 cells expressing a G810S mutant RET Kif5b-RET fusion protein (Homo sapiens, UniProt P07949, G810S); assay: RET G810S Mutant Cell Assay (phospho-RET Tyr1062); assay type: cell-based; settings: HEK-293 Kif5b-RET G810S, 1 hour incubation, phospho-RET normalized to GAPDH
T1 construct: KIF5B (N-terminal portion incl. coiled-coil); expressed in transfected cells; host or cells: HEK-293
T1 sequence (P07949 713-1063 G810S limits assumed): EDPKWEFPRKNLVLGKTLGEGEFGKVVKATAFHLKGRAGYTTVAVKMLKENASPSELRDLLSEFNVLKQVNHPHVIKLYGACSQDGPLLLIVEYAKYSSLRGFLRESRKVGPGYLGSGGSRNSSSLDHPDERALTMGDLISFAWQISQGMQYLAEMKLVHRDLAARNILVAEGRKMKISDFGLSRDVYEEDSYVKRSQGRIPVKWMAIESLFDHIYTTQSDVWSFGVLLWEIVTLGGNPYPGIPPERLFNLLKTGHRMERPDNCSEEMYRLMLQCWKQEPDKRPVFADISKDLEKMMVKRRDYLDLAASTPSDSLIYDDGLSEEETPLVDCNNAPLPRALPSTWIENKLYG
Method in brief: (§1)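 Engineered HEK-293 cells were treated 1 h with compound in DMEM, 0.5% DMSO final, then fixed, permeabilized and immunostained for phospho-RET Tyr1062 and GAPDH. In-cell fluorescence pRET signal was normalized to GAPDH; IC50 taken from a 4-parameter logistic fit of percent of control at 50 POC.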

RET kinase Wild Type = RET kinase Wild Type (Homo sapiens, UniProt P07949); assay: biochemical;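 also: HTRF kinase activity assay on RET enzyme, 1 h reaction at 22 °C, dual-wavelength readout as percent of control, DMSO-only wells as 100%, pre-quenched reactions as 0%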
Experimental: (§2) The potency of compounds inhibiting several different RET kinase forms (Wild Type, V804M, G810R, & G810S) were determined using CisBio's HTRF® KinEASE™-TK assay technology. […] After a 1 hour incubation at 22° C., the extent of reaction was determined using a PerkinElmer EnVision multimode plate reader via HTRF dual wavelength detection, and the percent of control (POC) was calculated using a ratiometric emission factor. One hundred POC was determined using DMSO only samples (no compound present), and 0 POC was determined using pre-quenched control reactions.

RET kinase V804M = RET kinase V804M (Homo sapiens, UniProt P07949, V804M); assay: RET Enzyme Assay (CisBio HTRF KinEASE-TK), V804M; assay type: biochemical; settings: read-out: RET V804M Enz FRET IC50
G810R mutant RET kinase = G810R mutant RET kinase (Homo sapiens, UniProt P07949, G810R); assay: biochemical;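 also: HTRF KinEASE-TK enzymatic assay with 1 nM recombinant RET G810R, 1 h at 22 °C, dual-wavelength ratiometric readout, 100% control without compound, 0% from pre-quenched reactions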
Experimental: as §2
(§3) The potency of a compound inhibiting G810R or G810S mutant RET kinase was determined using CisBio's HTRF® KinEASE™-TK assay technology. The assays contained G810R or G810S mutant RET produced at Array Biopharma, Inc. (1 nM enzyme). […] After a 1-h incubation at 22° C., the extent of reaction was determined using a PerkinElmer EnVision multimode plate reader via HTRF dual wavelength detection, and the percent of control (POC) was calculated using a ratiometric emission factor. One hundred POC was determined using no test compounds, and 0 POC was determined using pre-quenched control reactions.

[2] = molecular target: T2, HEK-293 cells expressing a Kif5b-RET fusion protein (Homo sapiens, UniProt P07949); assay: RET Cell Assay (phospho-RET Tyr1062); assay type: cell-based; settings: HEK-293 Kif5b-RET, 1 hour incubation, phospho-RET normalized to GAPDH; read-out: KIF5B-RET pTYR1062 Cell IC50
T2 construct: KIF5B (N-terminal portion incl. coiled-coil); expressed in transfected cells; host or cells: HEK-293; the other entry of the earlier key: KIF5B (P33176, Kinesin-1 heavy chain)
T2 sequence (P07949 713-1063 limits assumed): T1 sequence (P07949 713-1063 G810S limits assumed) with S98G
Method in brief: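 Kif5b-RET HEK-293 cells treated 1 hour with compound in DMEM (0.5% DMSO final), then fixed and immunostained for phospho-RET Tyr1062, normalized to GAPDH by infrared fluorescence. IC50 where the 4-parameter logistic fit of POC crosses 50.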

[3] = molecular target: T3, HEK-293 cells expressing a G810R mutant RET Kif5b-RET fusion protein (Homo sapiens, UniProt P07949, G810R); assay: RET G810R Mutant Cell Assay (phospho-RET Tyr1062); assay type: cell-based; settings: HEK-293 Kif5b-RET G810R, 1 hour incubation, phospho-RET normalized to GAPDH
T3 construct: KIF5B (N-terminal portion incl. coiled-coil); expressed in transfected cells; host or cells: HEK-293; the other entry of the earlier key: KIF5B (P33176, Kinesin-1 heavy chain)
T3 sequence (P07949 713-1063 G810R limits assumed): T1 sequence (P07949 713-1063 G810S limits assumed) with S98R
Method in brief: as §1

G810S mutant RET kinase = G810S mutant RET kinase (Homo sapiens, UniProt P07949, G810S); assay: biochemical;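 also: HTRF KinEASE-TK kinase assay with recombinant enzyme, 1 h at 22 °C, dual-wavelength ratiometric read-out, percent of control (DMSO-only = 100, pre-quenched reaction = 0)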
Sequence of G810S mutant RET kinase (P07949 29-1114 G810S): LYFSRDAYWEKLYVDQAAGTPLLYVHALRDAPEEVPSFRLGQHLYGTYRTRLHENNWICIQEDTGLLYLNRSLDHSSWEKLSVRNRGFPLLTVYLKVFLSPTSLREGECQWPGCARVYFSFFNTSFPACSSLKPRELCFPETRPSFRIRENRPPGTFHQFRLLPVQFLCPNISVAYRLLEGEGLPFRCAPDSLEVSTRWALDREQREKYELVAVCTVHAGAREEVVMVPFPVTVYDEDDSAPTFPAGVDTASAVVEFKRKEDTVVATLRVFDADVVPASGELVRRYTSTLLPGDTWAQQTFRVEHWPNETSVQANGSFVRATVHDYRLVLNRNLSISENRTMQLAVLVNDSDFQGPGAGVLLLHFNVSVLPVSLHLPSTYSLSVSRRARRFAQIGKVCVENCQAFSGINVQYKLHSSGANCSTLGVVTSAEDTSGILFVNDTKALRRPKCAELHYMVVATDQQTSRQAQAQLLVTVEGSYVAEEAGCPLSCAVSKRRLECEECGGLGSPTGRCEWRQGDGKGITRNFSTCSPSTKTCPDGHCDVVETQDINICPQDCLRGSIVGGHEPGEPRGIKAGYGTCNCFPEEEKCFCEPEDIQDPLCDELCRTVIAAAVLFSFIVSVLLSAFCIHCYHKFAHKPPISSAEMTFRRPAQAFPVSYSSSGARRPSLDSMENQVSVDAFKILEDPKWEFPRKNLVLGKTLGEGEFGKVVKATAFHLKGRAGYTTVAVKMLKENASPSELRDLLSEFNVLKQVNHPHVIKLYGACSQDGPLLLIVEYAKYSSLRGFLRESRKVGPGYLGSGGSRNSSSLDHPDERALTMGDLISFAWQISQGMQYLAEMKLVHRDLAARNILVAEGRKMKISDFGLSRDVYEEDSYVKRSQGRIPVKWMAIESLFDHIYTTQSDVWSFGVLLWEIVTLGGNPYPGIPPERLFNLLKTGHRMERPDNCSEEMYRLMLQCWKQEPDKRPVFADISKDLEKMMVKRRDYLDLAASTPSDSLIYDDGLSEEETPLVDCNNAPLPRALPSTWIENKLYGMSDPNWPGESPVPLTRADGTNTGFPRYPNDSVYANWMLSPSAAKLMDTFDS
Experimental: as §2, §3

Sequence of RET kinase V804M (P07949 29-1114 V804M): as the sequence (P07949 29-1114 G810S) above, with V776M, S782G counted along it
Sequence of G810R mutant RET kinase (P07949 29-1114 G810R): as the sequence (P07949 29-1114 G810S) above, with S782R counted along it
Sequence of RET kinase Wild Type (P07949 29-1114): as the sequence (P07949 29-1114 G810S) above, with S782G counted along it

Compound	pIC50 [1]	pIC50 (RET kinase Wild Type)	pIC50 (RET kinase V804M)	pIC50 (G810R mutant RET kinase)	pIC50 [2]	pIC50 [3]	pIC50 (G810S mutant RET kinase)
CC(C)n1c2c(c3c(N)ncnc31)-c1noc(C3CC3)c1C(=O)N(C)C2 [Example 20, 11-amino-3-cyclopropyl-7-isopropyl-5-methyl-6,7-dihydroisoxazolo[4,3-c]pyrimido[5′,4′:4,5]pyrrolo[3,2-e]azepin-4(5H)-one]	6.95	7.28	6.60	6.87	7.55	6.80	6.91
CC1Cc2c(c3c(N)ncnc3n2C(C)C)-c2noc(C3CC3)c2C1=O (centres unmarked) [Example 60, 11-amino-3-cyclopropyl-7-isopropyl-5-methyl-6,7-dihydroisoxazolo[4″,3″:6′,7′]cyclohepta[1′,2′:4,5]pyrrolo[2,3-d]pyrimidin-4(5H)-one]	7.00	7.68	7.01	7.35	7.54	6.80	7.40
CC(C)n1c2c(c3c(N)ncnc31)-c1noc(C3CC3)c1S(=O)(=O)CC2 [Example 23, 11-amino-3-cyclopropyl-7-isopropyl-6,7-dihydro-5H-isoxazolo[4″,3″:2′,3′]thiepino[4′,5′:4,5]pyrrolo[2,3-d]pyrimidine 4,4-dioxide 2,2,2-trifluoroacetate]	6.97	7.74	6.72	7.20	7.70	6.88	7.27
C[C@H](n1c2c(c3c(N)ncnc31)-c1noc(C3CC3)c1[C@@H](O)CC2)C(F)(F)F (single isomer, unassigned) [Example 146, 2,2,2-trifluoroacetate]	7.17	7.59	7.06	7.37	7.20	7.01	6.94
CC(C)n1c2c(c3c(N)ncnc31)-c1noc(C3CC3)c1[C@H](O)[C@@H](C)C2 (single isomer, unassigned) [Example 65]	6.54	7.37	6.79	7.19	7.35	6.21	6.88
CC(C)n1c2c(c3c(N)ncnc31)-c1noc(C3CC3)c1[C@@H](O)[C@H](C)C2 (relative stereo) [Example 62, (Trans)-11-amino-3-cyclopropyl-7-isopropyl-5-methyl-4,5,6,7-tetrahydroisoxazolo[4″,3″:6′,7′]cyclohepta[1′,2′:4,5]pyrrolo[2,3-d]pyrimidin-4-ol]	6.72	7.47	6.86	7.02	7.28	6.46	7.13
CO[C@@H]1CCc2c(c3c(N)ncnc3n2C(C)C)-c2noc(C3CC3)c21 (single isomer, unassigned) [Example 58]	6.74	7.64	7.18	7.19	7.31	6.73	6.80
CC(C)n1c2c(c3c(N)ncnc31)-c1noc(C3CC3)c1[C@@H](O)[C@@H](C)C2 (relative stereo) [Example 63, (Cis)-11-amino-3-cyclopropyl-7-isopropyl-5-methyl-4,5,6,7-tetrahydroisoxazolo[4″,3″:6′,7′]cyclohepta[1′,2′:4,5]pyrrolo[2,3-d]pyrimidin-4-ol]	6.45	7.21	6.68	6.93	7.14	6.36	6.97
C[C@@H](n1c2c(c3c(N)ncnc31)-c1noc(C3CC3)c1[C@H](O)CC2)C(F)(F)F (single isomer, unassigned) [Example 147, 2,2,2-trifluoroacetate]	7.05	7.85	7.49	7.13	7.68	7.25	7.03

The next compounds have a higher pIC50 [1] than those just listed; values first:

pIC50 [1]	pIC50 (RET kinase Wild Type)	pIC50 (RET kinase V804M)	pIC50 (G810R mutant RET kinase)	pIC50 [2]	pIC50 [3]	pIC50 (G810S mutant RET kinase)	Compound
7.24	8.05	7.57	7.07	7.85	6.95	7.26	CO[C@@H]1CCc2c(c3c(N)ncnc3n2C2(C)CC2)-c2noc(C3CC3)c21 [Example 151, (R)-3-Cyclopropyl-4-methoxy-7-(1-methylcyclopropyl)-4,5,6,7-tetrahydroisoxazolo[4″,3″:6′,7]cyclohepta[1′,2′:4,5]pyrrolo[2,3-d]pyrimidin-11-amine]
7.28	8.22	7.68	7.55	8.05	7.24	7.64	Nc1ncnc2c1c1c(n2C(CF)CF)CC[C@@H](O)c2c-1noc2C1CC1 (single isomer, unassigned) [Example 127]
7.33	7.14	5.35	6.32	7.59	7.33	6.34	CC(C)n1c2c(c3c(N)ncnc31)-c1cc3ccc(C(=O)NC4(C)CC4)cc3n1CCC2 [Example 97, 1-amino-5-isopropyl-N-(1-methylcyclopropyl)-5,6,7,8-tetrahydropyrimido[5″,4″:4′,5′]pyrrolo[3′,2′: 3,4]azepino[1,2-a]indole-11-carboxamide]
7.40	8.10	7.68	7.51	8.00	7.34	7.54	CC(C)n1c2c(c3c(N)ncnc31)-c1noc(C3CC3)c1[C@H](O)CC2 (single isomer, unassigned) [Example 55]
7.43	8.10	7.59	7.57	7.92	7.15	7.60	CC(C)n1c2c(c3c(N)ncnc31)-c1noc(C3CC3)c1C(O)CC2 (racemic) [Example 29, 11-amino-3-cyclopropyl-7-isopropyl-4,5,6,7-tetrahydroisoxazolo[4″,3″:6′,7′]cyclohepta[1′,2′:4,5]pyrrolo[2,3-d]pyrimidin-4-ol]
7.48	8.00	7.70	7.13	7.82	7.46	7.62	Nc1ncnc2c1c1c(n2C2CCCC2)CCC(O)c2c-1noc2C1CC1 (centres unmarked) [Example 120, 11-Amino-7-cyclopentyl-3-cyclopropyl-4,5,6,7-tetrahydroisoxazolo[4″,3″:6′,7′]cyclohepta[1′,2′:4,5]pyrrolo[2,3-d]pyrimidin-4-ol]
7.59	8.22	7.52	7.82	8.30	7.54	8.05	Nc1ncnc2c1c1c(n2C(CF)CF)CC[C@H](O)c2c-1noc2C1CC1 (single isomer, unassigned) [Example 126]
7.80	7.96	7.72	7.39	8.15	7.80	7.72	Nc1ncnc2c1c1c(n2C2CCCC2)CC[C@@H](O)c2c-1noc2C1CC1 (single isomer, unassigned) [Example 125]

Reference: US11964988B2, “Fused heterocyclic compounds as RET kinase inhibitors” (ARRAY BIOPHARMA INC., priority 2018, dated 2024)
